In ChEMBL document CHEMBL5335793, “PITB: A high affinity transthyretin aggregation inhibitor with optimal pharmacokinetic properties” (Eur J Med Chem, 2023):
pKd: −log10 of the molar value.

Key:
Transthyretin [1] = target: T1, Transthyretin (Homo sapiens, UniProt P02766); test: Stabilization of wild-type TTR (unknown origin) expressed in Escherichia coli BL21(DE3) assessed as reduction in urea-induced tetramer dissociation at 3.6 uM preincubated for 30 mins followed by urea addition measured for 100 hrs by fluorescence based assay relative to control; parameters: scale not given: the % may be the effect or the level left; conditions: time 100.5 hrs
[2] = system: Transthyretin (Homo sapiens), P02766 [V50M]; test: Stabilization of TTR V30M mutant (unknown origin) expressed in Escherichia coli BL21(DE3) assessed as reduction in urea-induced tetramer dissociation at 3.6 uM preincubated for 30 mins followed by urea addition measured for 100 hrs by fluorescence based assay relative to control; parameters: scale not given: the % may be the effect or the level left; conditions: time 100.5 hrs
[3] = system: Transthyretin (Homo sapiens), P02766 [V142I]; test: Stabilization of TTR V122I mutant (unknown origin) expressed in Escherichia coli BL21(DE3) assessed as reduction in urea-induced tetramer dissociation at 3.6 uM preincubated for 30 mins followed by urea addition measured for 100 hrs by fluorescence based assay relative to control; parameters: scale not given: the % may be the effect or the level left; conditions: time 100.5 hrs
[4] = Half life in CD-1 mouse at 1 mg/kg, iv measured for 24 hrs by UPLC-MS/MS analysis; type: ADME, organism-based; conditions: in vivo
[5] = AUC (0 to 24 hrs) in CD-1 mouse at 1 mg/kg, iv by UPLC-MS/MS analysis; type: ADME, organism-based; parameters: time 24 hrs, dose 1 mg/kg, route iv; conditions: in vivo
[6] = Cmax in CD-1 mouse at 1 mg/kg, iv measured for 24 hrs by UPLC-MS/MS analysis; type: ADME, organism-based; parameters: dose 1 mg/kg, time 24 hrs, route iv; conditions: in vivo
Transthyretin [7] = target: T1, Transthyretin; test: Stabilization of wild-type TTR (unknown origin) expressed in Escherichia coli BL21(DE3) assessed as inhibition of TTR aggregation at 1:1 ratio of TTR:compound incubated for 30 mins followed by acidification measured for 72 hrs by turbidimetry relative to control; conditions: time 72.5 hrs
Transthyretin [8] = target: T1, Transthyretin; test: Stabilization of wild-type TTR (unknown origin) expressed in Escherichia coli BL21(DE3) assessed as inhibition of TTR aggregation at 20 uM incubated for 30 mins followed by acidification measured for 72 hrs by turbidimetry relative to control; conditions: time 72.5 hrs
[9] = system: Transthyretin (Homo sapiens), P02766 [V50M]; test: Stabilization of TTR V30M mutant (unknown origin) expressed in Escherichia coli BL21(DE3) assessed as inhibition of TTR aggregation at 20 uM incubated for 30 mins followed by acidification measured for 72 hrs by turbidimetry relative to control; conditions: time 72.5 hrs
[10] = system: Transthyretin (Homo sapiens), P02766 [V142I]; test: Stabilization of TTR V122I mutant (unknown origin) expressed in Escherichia coli BL21(DE3) assessed as inhibition of TTR aggregation at 20 uM incubated for 30 mins followed by acidification measured for 72 hrs by turbidimetry relative to control; conditions: time 72.5 hrs
Transthyretin [11] = target: T1, Transthyretin; test: Stabilization of wild-type TTR (unknown origin) expressed in Escherichia coli BL21(DE3) assessed as inhibition of TTR aggregation incubated for 30 mins followed by acidification measured for 72 hrs by turbidimetry relative to control; conditions: time 72.5 hrs
Transthyretin [12] = target: T1, Transthyretin; test: Binding affinity to wild-type TTR (unknown origin) expressed in Escherichia coli BL21(DE3) assessed as dissociation constant by ITC analysis
Transthyretin [13] = target: T1, Transthyretin; test: Binding affinity to wild-type TTR (unknown origin) expressed in Escherichia coli BL21(DE3) assessed as change in gibbs free energy at 100 uM by ITC analysis
Transthyretin [14] = target: T1, Transthyretin; test: Binding affinity to wild-type TTR (unknown origin) expressed in Escherichia coli BL21(DE3) assessed as change in enthalpy at 100 uM by ITC analysis
Transthyretin [15] = target: T1, Transthyretin; test: Binding affinity to wild-type TTR (unknown origin) expressed in Escherichia coli BL21(DE3) assessed as change in entropy at 100 uM by ITC analysis
Transthyretin [16] = target: Transthyretin (Homo sapiens, UniProt P02766, V50M); test: Binding affinity to TTR V30M mutant (unknown origin) expressed in Escherichia coli BL21(DE3) assessed as dissociation constant by ITC analysis
[17] = system: Transthyretin (Homo sapiens), P02766 [V50M]; test: Binding affinity to TTR V30M mutant (unknown origin) expressed in Escherichia coli BL21(DE3) assessed as change in gibbs free energy at 100 uM by ITC analysis
[18] = system: Transthyretin (Homo sapiens), P02766 [V50M]; test: Binding affinity to TTR V30M mutant (unknown origin) expressed in Escherichia coli BL21(DE3) assessed as change in enthalpy at 100 uM by ITC analysis
[19] = system: Transthyretin (Homo sapiens), P02766 [V50M]; test: Binding affinity to TTR V30M mutant (unknown origin) expressed in Escherichia coli BL21(DE3) assessed as change in entropy at 100 uM by ITC analysis
Transthyretin [20] = target: Transthyretin (Homo sapiens, UniProt P02766, V142I); test: Binding affinity to TTR V122I mutant (unknown origin) expressed in Escherichia coli BL21(DE3) assessed as dissociation constant by ITC analysis
[21] = system: Transthyretin (Homo sapiens), P02766 [V142I]; test: Binding affinity to TTR V122I mutant (unknown origin) expressed in Escherichia coli BL21(DE3) assessed as change in gibbs free energy at 100 uM by ITC analysis
[22] = system: Transthyretin (Homo sapiens), P02766 [V142I]; test: Binding affinity to TTR V122I mutant (unknown origin) expressed in Escherichia coli BL21(DE3) assessed as change in enthalpy at 100 uM by ITC analysis
[23] = system: Transthyretin (Homo sapiens), P02766 [V142I]; test: Binding affinity to TTR V122I mutant (unknown origin) expressed in Escherichia coli BL21(DE3) assessed as change in entropy at 100 uM by ITC analysis
Transthyretin [24] = target: T1, Transthyretin; test: Potency index, ratio of Kd for Tolcapone to test compound for wild-type TTR (unknown origin) expressed in Escherichia coli BL21(DE3) assessed as dissociation constant by ITC analysis
[25] = system: Transthyretin (Homo sapiens), P02766 [V142I]; test: Potency index, ratio of Kd for Tolcapone to test compound for TTR V122I mutant (unknown origin) expressed in Escherichia coli BL21(DE3) assessed as dissociation constant by ITC analysis
[26] = system: Transthyretin (Homo sapiens), P02766 [V50M]; test: Potency index, ratio of Kd for Tolcapone to test compound for TTR V30M mutant (unknown origin) expressed in Escherichia coli BL21(DE3) assessed as dissociation constant by ITC analysis
Transthyretin [27] = target: T1, Transthyretin; test: Displacement of [125I]-T4 from TTR in human plasma incubated for 1 hr by densitometry relative to control; type: cell-free
[28] = system: Transthyretin (Homo sapiens), P02766 [V50M]; test: Displacement of [125I]-T4 from TTR V30M mutant in human plasma incubated for 1 hr by densitometry relative to control; type: cell-free
[29] = system: Transthyretin (Homo sapiens), P02766 [V50M]; test: Stabilization of TTR V30M mutant in human plasma assessed as degree of tetramer stability at 19.1 uM incubated overnight followed by urea addition measured after 5 hrs by isoelectric focusing based densitometry relative to control; type: cell-free
HeLa = test: Cytotoxicity against human HeLa cells assessed as cell viability upto 100 uM incubated for 72 hrs by PrestoBlue assay; type: toxicity, cell-based
HepG2 = test: Cytotoxicity against human HepG2 cells assessed as cell viability upto 100 uM incubated for 72 hrs by PrestoBlue assay; type: toxicity, cell-based; conditions: hepg2, 72 h
MRC5 = test: Cytotoxicity against human MRC5 cells assessed as cell viability upto 100 uM incubated for 72 hrs by PrestoBlue assay; type: toxicity, cell-based; conditions: mrc5, 72 h
[30] = Tmax in CD-1 mouse at 10 mg/kg, po measured for 24 hrs by UPLC-MS/MS analysis; type: ADME, organism-based; conditions: in vivo
[31] = Cmax in CD-1 mouse at 10 mg/kg, po measured for 24 hrs by UPLC-MS/MS analysis; type: ADME, organism-based; parameters: dose 10 mg/kg, time 24 hrs, route po; conditions: in vivo
[32] = AUC (0 to 24 hrs) in CD-1 mouse at 10 mg/kg, po measured for 24 hrs by UPLC-MS/MS analysis; type: ADME, organism-based; parameters: time 24 hrs, dose 10 mg/kg, route po; conditions: in vivo
[33] = Half life in CD-1 mouse at 10 mg/kg, po measured for 24 hrs by UPLC-MS/MS analysis; type: ADME, organism-based; conditions: in vivo
[34] = Elimination rate constant in CD-1 mouse at 1 mg/kg, iv measured for 24 hrs by UPLC-MS/MS analysis; type: ADME, organism-based; conditions: in vivo
[35] = Volume of distribution in CD-1 mouse at 1 mg/kg, iv measured for 24 hrs by UPLC-MS/MS analysis; type: ADME, organism-based; conditions: in vivo
[36] = Clearance in CD-1 mouse at 1 mg/kg, iv measured for 24 hrs by UPLC-MS/MS analysis; type: ADME, organism-based; conditions: in vivo
[37] = Elimination rate constant in CD-1 mouse at 10 mg/kg, po measured for 24 hrs by UPLC-MS/MS analysis; type: ADME, organism-based; conditions: in vivo
[38] = Volume of distribution in CD-1 mouse at 10 mg/kg, po measured for 24 hrs by UPLC-MS/MS analysis; type: ADME, organism-based; conditions: in vivo
[39] = Clearance in CD-1 mouse at 10 mg/kg, po measured for 24 hrs by UPLC-MS/MS analysis; type: ADME, organism-based; conditions: in vivo
[40] = Oral bioavailability in CD-1 mouse at 10 mg/kg measured for 24 hrs by UPLC-MS/MS analysis; type: ADME, organism-based; conditions: in vivo

Activity (Transthyretin [1]): 94.1%
Activity [2]: 79.2%
Activity [3]: 92.5%
half-life [4]: 3.5 h
AUC(0-t) at 24 h [5]: 3160 ng·h/mL
Cmax [6]: 4040 ng/mL
inhibition (Transthyretin [7]): > 60%
inhibition (Transthyretin [8]): 89.2%
inhibition [9]: 92%
inhibition [10]: < 90%
inhibition (Transthyretin [11]): > 87.5%
pKd (Transthyretin [12]): 7.80
deltaG (Transthyretin [13]): -10.6 kcal/mol
deltaH (Transthyretin [14]): -13.4 kcal/mol
-TdeltaS (Transthyretin [15]): 2.8 kcal/mol
pKd (Transthyretin [16]): 7.44
deltaG [17]: -10.2 kcal/mol
deltaH [18]: -11 kcal/mol
-TdeltaS [19]: 0.8 kcal/mol
pKd (Transthyretin [20]): 7.85
deltaG [21]: -10.7 kcal/mol
deltaH [22]: -16.1 kcal/mol
-TdeltaS [23]: 5.4 kcal/mol
Ratio (Transthyretin [24]): > 3
Ratio [25]: > 3
Ratio [26]: > 12
Activity (Transthyretin [27]): 97.3%
Activity [28]: 94.5%
Activity [29]: 17.4%
Tmax [30]: 0.5 h
Cmax [31]: 4180 ng/mL
AUC(0-t) at 24 h [32]: 26900 ng·h/mL
half-life [33]: 10.1 h
k el at 24 h [34]: 5.58e-05 s⁻¹
Vd [35]: 1.57 L/kg
clearance [36]: 5.25 mL/min/kg
k el at 24 h [37]: 1.92e-05 s⁻¹
Vd [38]: 4.482 L/kg
CL/F [39]: 5.13 mL/min/kg
bioavailability [40]: 85.1%
SMILES: COc1cc(C(=O)c2cc(O)cc(F)c2)cc([N+](=O)[O-])c1O
Activity (HeLa): Non-Toxic
Activity (HepG2): Non-Toxic
Activity (MRC5): Non-Toxic
